Assay results reported in ChEMBL document CHEMBL5463729, “Data for DCP probe BAY 1753011” (2023).

Key:
[1] = target: Vasopressin V1b receptor (Homo sapiens, UniProt P47901); assay: Radiometric AVPR1B binding assay (Eurofins #287560)
[2] = target: Calcium/calmodulin-dependent protein kinase type 1 (Homo sapiens) (UniProt Q14012); assay: Inhibition of CaMKI(h) at 10.0 µM in the Eurofins Kinase panel; conditions: Compound concentration 10.0 uM
[3] = target: CDC7/Cyclin B1 (Homo sapiens) (UniProt P14635+O00311); assay: Inhibition of Cdc7/cyclinB1(h) at 10.0 µM in the Eurofins Kinase panel; assay type: protein-complex assay; conditions: Compound concentration 10.0 uM
[4] = target: Cyclin-dependent kinase 1/cyclin B1 (Homo sapiens) (UniProt P06493+P14635); assay: Inhibition of CDK1/cyclinB(h) at 10.0 µM in the Eurofins Kinase panel; assay type: protein-complex assay; conditions: Compound concentration 10.0 uM
[5] = target: G protein-coupled receptor kinase 5 (Homo sapiens) (UniProt P34947); assay: Inhibition of GRK5(h) at 10.0 µM in the Eurofins Kinase panel; conditions: Compound concentration 10.0 uM
G protein-coupled receptor kinase 5 (Homo sapiens), sequence (P34947 whole entry, looked up): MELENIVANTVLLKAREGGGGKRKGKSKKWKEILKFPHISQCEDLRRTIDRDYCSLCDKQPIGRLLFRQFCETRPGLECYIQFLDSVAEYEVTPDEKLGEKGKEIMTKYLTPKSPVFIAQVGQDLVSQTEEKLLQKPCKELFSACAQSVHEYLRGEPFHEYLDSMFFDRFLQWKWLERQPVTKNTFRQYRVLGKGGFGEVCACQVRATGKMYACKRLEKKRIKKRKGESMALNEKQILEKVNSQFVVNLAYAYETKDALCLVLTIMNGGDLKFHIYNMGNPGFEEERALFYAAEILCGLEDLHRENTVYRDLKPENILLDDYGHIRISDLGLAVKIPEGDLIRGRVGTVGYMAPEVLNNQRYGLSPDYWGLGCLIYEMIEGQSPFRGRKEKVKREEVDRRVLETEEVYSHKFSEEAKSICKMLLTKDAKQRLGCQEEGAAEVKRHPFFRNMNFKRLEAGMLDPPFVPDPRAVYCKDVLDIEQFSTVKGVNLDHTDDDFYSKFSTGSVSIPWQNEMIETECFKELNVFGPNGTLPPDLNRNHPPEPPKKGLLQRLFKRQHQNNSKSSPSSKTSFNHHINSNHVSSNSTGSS

[6] = target: Mitogen-activated protein kinase 9 (Homo sapiens) (UniProt P45984); assay: Inhibition of JNK2alpha2(h) at 10.0 µM in the Eurofins Kinase panel; conditions: Compound concentration 10.0 uM
[7] = target: Serine/threonine-protein kinase MAK (Homo sapiens) (UniProt P20794); assay: Inhibition of MAK(h) at 10.0 µM in the Eurofins Kinase panel; conditions: Compound concentration 10.0 uM
[8] = target: Mitogen-activated protein kinase kinase kinase 10 (Homo sapiens) (UniProt Q02779); assay: Inhibition of MLK2(h) at 10.0 µM in the Eurofins Kinase panel; conditions: Compound concentration 10.0 uM
[9] = target: Serine/threonine-protein kinase MRCK gamma (Homo sapiens) (UniProt Q6DT37); assay: Inhibition of MRCKgamma(h) at 10.0 µM in the Eurofins Kinase panel; conditions: Compound concentration 10.0 uM
Serine/threonine-protein kinase MRCK gamma (Homo sapiens), sequence (Q6DT37 whole entry): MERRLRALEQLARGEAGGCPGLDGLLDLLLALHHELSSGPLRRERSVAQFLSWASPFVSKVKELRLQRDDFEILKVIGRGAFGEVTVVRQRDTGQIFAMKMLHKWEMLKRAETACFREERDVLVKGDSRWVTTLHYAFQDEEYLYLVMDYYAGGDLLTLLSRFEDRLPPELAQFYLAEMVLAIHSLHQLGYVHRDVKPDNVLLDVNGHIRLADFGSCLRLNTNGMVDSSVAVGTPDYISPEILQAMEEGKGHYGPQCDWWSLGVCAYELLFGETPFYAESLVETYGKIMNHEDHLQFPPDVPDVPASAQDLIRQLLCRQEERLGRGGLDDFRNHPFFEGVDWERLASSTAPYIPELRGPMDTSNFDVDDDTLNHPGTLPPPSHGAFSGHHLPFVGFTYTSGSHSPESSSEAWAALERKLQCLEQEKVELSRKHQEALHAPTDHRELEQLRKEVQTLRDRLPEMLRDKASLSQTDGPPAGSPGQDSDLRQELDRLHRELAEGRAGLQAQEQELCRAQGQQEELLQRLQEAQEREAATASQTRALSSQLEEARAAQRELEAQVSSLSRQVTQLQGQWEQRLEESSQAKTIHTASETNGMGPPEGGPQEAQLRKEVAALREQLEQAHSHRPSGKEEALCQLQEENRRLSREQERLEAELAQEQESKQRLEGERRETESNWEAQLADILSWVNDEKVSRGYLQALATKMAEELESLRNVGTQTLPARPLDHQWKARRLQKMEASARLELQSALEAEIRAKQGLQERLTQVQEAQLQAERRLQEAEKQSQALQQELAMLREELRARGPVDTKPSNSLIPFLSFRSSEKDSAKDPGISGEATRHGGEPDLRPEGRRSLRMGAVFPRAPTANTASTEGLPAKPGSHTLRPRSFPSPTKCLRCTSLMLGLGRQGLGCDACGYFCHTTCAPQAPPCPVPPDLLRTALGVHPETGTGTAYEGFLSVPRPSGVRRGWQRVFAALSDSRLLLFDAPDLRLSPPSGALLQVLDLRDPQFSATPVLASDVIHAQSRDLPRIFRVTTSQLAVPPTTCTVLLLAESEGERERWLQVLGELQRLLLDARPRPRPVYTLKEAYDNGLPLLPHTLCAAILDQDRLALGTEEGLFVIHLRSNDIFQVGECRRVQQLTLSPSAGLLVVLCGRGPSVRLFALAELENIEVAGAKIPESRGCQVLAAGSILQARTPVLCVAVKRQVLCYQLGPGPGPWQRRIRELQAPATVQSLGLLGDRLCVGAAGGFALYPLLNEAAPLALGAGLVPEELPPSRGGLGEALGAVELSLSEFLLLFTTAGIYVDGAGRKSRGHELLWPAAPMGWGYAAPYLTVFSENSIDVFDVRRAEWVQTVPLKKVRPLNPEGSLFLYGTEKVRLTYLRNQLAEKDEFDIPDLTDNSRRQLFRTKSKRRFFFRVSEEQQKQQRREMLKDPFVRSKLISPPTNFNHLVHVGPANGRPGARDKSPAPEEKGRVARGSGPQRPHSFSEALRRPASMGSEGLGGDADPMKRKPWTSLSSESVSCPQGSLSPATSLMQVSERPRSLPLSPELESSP

[10] = target: Serine/threonine-protein kinase pim-1 (Homo sapiens) (UniProt P11309); assay: Inhibition of Pim-1(h) at 10.0 µM in the Eurofins Kinase panel; conditions: Compound concentration 10.0 uM
Serine/threonine-protein kinase pim-1 (Homo sapiens), sequence (P11309 whole entry, looked up): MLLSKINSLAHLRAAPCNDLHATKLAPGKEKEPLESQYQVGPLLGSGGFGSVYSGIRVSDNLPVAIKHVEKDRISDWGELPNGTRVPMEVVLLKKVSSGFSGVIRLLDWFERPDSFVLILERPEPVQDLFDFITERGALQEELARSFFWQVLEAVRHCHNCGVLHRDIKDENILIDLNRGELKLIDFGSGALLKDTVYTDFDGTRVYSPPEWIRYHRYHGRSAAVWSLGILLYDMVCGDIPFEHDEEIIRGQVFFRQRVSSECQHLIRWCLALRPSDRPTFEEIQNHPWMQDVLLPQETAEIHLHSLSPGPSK

[11] = target: Interferon-induced, double-stranded RNA-activated protein kinase (Homo sapiens) (UniProt P19525); assay: Inhibition of PKR(h) at 10.0 µM in the Eurofins Kinase panel; conditions: Compound concentration 10.0 uM
[12] = target: Serine/threonine-protein kinase N1 (Homo sapiens) (UniProt Q16512); assay: Inhibition of PRK1(h) at 10.0 µM in the Eurofins Kinase panel; conditions: Compound concentration 10.0 uM
Serine/threonine-protein kinase N1 (Homo sapiens), sequence (Q16512 2-942 limits assumed): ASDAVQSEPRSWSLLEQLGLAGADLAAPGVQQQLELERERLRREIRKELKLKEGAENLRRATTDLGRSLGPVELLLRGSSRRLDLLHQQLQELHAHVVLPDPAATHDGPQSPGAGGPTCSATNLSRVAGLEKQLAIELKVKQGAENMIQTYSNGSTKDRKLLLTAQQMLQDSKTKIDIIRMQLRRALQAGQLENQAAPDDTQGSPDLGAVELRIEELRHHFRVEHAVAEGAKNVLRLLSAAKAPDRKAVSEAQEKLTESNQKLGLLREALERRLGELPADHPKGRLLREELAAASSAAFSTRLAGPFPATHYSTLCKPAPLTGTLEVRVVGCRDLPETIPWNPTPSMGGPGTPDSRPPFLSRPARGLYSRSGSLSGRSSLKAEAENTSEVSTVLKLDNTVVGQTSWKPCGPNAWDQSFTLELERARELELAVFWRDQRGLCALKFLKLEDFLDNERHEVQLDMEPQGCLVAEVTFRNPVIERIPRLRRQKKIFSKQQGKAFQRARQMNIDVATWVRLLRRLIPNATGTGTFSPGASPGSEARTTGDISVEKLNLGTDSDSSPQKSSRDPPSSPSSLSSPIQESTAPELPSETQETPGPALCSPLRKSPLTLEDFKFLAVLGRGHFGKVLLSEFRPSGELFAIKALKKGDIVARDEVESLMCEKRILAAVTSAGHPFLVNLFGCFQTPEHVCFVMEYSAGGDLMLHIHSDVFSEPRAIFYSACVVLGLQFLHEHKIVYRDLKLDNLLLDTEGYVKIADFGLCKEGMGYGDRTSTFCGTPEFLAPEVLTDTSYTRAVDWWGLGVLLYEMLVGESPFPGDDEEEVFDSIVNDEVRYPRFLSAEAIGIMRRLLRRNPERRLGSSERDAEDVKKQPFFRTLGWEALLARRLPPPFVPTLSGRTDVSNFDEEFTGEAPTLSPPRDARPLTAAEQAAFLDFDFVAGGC

[13] = target: Rho-associated protein kinase 1 (Homo sapiens) (UniProt Q13464); assay: Inhibition of ROCK-I(h) at 10.0 µM in the Eurofins Kinase panel; conditions: Compound concentration 10.0 uM
[14] = target: Mitogen-activated protein kinase 11 (Homo sapiens) (UniProt Q15759); assay: Inhibition of SAPK2b(h) at 10.0 µM in the Eurofins Kinase panel; conditions: Compound concentration 10.0 uM
Mitogen-activated protein kinase 11 (Homo sapiens), sequence (Q15759 whole entry): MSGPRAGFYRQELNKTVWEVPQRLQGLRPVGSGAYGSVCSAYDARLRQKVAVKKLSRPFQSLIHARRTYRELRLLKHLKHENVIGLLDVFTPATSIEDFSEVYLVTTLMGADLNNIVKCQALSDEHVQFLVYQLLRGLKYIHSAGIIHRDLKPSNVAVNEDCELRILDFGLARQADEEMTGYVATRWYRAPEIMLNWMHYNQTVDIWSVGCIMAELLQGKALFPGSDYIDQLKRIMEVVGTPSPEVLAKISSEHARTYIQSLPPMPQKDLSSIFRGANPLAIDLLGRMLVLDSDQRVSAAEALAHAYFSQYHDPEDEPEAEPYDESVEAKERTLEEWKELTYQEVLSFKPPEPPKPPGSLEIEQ

[15] = target: Serine/threonine-protein kinase TAO3 (Homo sapiens) (UniProt Q9H2K8); assay: Inhibition of TAO3(h) at 10.0 µM in the Eurofins Kinase panel; conditions: Compound concentration 10.0 uM
[16] = target: Non-receptor tyrosine-protein kinase TYK2 (Homo sapiens) (UniProt P29597); assay: Inhibition of TYK2(h) at 10.0 µM in the Eurofins Kinase panel; conditions: Compound concentration 10.0 uM
[17] = target: ATR/ATRIP (Homo sapiens) (UniProt Q13535+Q8WXE1); assay: Inhibition of ATR/ATRIP(h) at 10.0 µM in the Eurofins Kinase panel; assay type: protein-complex assay; conditions: Compound concentration 10.0 uM
[18] = target: DNA-dependent protein kinase catalytic subunit (Homo sapiens) (UniProt P78527); assay: Inhibition of DNA-PK(h) at 10.0 µM in the Eurofins Kinase panel; conditions: Compound concentration 10.0 uM
[19] = target: Phosphatidylinositol 4-phosphate 3-kinase C2 domain-containing subunit alpha (Homo sapiens) (UniProt O00443); assay: Inhibition of PI3KC2a(h) at 10.0 µM in the Eurofins Kinase panel; conditions: Compound concentration 10.0 uM
[20] = target: Phosphatidylinositol 4-phosphate 5-kinase type-1 gamma (Homo sapiens) (UniProt O60331); assay: Inhibition of PIP5K1g(h) at 10.0 µM in the Eurofins Kinase panel; conditions: Compound concentration 10.0 uM
[21] = target: T1, Alpha-2A adrenergic receptor (Homo sapiens) (UniProt P08913); conditions: Compound concentration 10.0 uM
T1 sequence (whole entry): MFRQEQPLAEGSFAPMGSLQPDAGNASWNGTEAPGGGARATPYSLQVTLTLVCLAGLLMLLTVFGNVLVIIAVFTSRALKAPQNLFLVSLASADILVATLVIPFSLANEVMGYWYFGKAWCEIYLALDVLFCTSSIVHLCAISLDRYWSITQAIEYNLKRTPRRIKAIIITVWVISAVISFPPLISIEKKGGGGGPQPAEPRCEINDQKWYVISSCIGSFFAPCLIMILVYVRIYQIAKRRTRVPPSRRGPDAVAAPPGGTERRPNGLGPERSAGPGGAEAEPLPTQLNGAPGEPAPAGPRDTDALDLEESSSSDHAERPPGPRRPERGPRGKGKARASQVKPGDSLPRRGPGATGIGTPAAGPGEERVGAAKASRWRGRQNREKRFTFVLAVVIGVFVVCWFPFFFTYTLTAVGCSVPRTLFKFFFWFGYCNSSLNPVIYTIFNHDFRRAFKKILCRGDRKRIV

[22] = target: Estrogen receptor (Homo sapiens) (UniProt P03372); conditions: Compound concentration 10.0 uM
[23] = target: Glutamate NMDA receptor (Rattus norvegicus) (UniProt P35439+Q00959+Q00960+Q00961+Q62645+Q8VHN2+Q9R1M7); conditions: Compound concentration 10.0 uM
[24] = target: Sodium-dependent serotonin transporter (Homo sapiens) (UniProt P31645); conditions: Compound concentration 10.0 uM
[25] = target: T2, Muscarinic acetylcholine receptor M4 (Homo sapiens) (UniProt P08173); conditions: Compound concentration 10.0 uM
T2 sequence (whole entry): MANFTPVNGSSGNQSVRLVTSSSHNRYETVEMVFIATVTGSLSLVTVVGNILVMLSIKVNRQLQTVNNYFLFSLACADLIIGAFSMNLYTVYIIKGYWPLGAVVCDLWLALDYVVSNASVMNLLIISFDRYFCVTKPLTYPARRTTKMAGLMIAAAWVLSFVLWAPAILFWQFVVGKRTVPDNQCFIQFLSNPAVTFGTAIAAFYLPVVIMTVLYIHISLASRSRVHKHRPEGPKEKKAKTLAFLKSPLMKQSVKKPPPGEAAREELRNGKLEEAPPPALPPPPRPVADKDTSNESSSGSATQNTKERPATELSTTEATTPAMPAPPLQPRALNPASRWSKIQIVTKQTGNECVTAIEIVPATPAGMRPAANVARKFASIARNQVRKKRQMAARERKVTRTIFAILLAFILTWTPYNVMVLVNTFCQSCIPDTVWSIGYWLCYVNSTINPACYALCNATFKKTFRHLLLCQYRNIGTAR

[26] = target: 5-hydroxytryptamine receptor 2C (Homo sapiens) (UniProt P28335); conditions: Compound concentration 10.0 uM
5-hydroxytryptamine receptor 2C (Homo sapiens), sequence (P28335 whole entry): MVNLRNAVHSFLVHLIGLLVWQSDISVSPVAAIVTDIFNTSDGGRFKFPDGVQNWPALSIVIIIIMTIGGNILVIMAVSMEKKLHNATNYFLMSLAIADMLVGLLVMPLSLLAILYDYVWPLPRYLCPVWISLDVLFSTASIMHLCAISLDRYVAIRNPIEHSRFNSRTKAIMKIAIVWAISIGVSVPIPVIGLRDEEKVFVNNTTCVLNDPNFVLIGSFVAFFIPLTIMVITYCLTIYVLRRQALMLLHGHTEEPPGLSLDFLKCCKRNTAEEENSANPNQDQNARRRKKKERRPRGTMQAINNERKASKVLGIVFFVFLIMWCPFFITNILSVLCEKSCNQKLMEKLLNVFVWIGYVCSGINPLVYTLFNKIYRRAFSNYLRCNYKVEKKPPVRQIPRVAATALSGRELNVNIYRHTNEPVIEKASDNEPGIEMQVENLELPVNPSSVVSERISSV

[27] = target: Serine/threonine-protein kinase PAK 5 (Homo sapiens) (UniProt Q9P286); assay: Inhibition of PAK5(h) at 10.0 µM in the Eurofins Kinase panel; conditions: Compound concentration 10.0 uM

Vasopressin V1b receptor, sequence (P47901 whole entry): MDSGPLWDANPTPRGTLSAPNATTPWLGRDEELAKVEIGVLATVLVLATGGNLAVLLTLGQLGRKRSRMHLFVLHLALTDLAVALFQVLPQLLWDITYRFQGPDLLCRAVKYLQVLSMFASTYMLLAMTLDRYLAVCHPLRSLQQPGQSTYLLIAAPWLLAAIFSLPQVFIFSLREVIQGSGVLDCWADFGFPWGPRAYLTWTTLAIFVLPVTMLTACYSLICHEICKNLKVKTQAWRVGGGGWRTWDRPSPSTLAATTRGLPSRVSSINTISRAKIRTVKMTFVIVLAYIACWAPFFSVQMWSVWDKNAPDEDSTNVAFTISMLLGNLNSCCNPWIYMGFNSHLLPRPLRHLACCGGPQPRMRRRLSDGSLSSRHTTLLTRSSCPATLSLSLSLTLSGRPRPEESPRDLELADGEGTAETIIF
Calcium/calmodulin-dependent protein kinase type 1 (Homo sapiens), sequence (Q14012 whole entry, looked up): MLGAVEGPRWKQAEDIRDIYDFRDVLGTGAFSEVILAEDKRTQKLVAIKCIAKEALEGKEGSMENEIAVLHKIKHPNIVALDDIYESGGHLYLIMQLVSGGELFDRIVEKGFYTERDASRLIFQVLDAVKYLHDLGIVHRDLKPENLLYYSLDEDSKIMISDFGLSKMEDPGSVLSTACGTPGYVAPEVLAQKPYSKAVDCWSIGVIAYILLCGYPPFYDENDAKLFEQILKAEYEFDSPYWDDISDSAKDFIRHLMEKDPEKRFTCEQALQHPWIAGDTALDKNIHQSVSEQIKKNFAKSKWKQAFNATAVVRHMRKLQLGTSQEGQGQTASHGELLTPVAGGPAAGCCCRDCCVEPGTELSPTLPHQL

| Compound | Ki [1] | inhibition [2] | inhibition [3] | inhibition [4] | inhibition [5] | inhibition [6] | inhibition [7] | inhibition [8] | inhibition [9] | inhibition [10] | inhibition [11] | inhibition [12] | inhibition [13] | inhibition [14] | inhibition [15] | inhibition [16] | inhibition [17] | inhibition [18] | inhibition [19] | inhibition [20] | other results |
| --- | --- | --- | --- | --- | --- | --- | --- | --- | --- | --- | --- | --- | --- | --- | --- | --- | --- | --- | --- | --- | --- |
| O=c1n(Cc2cncn2-c2cccc(Cl)c2)nc(-c2ccc(Cl)cc2)n1C[C@H](O)C(F)(F)F | > 10 µM (not active) | -4.98% | 3.68% | -8.48% | -0.58% | 2.28% | 3.99% | 0.43% | 1.06% | 6.13% | -3.03% | -8.29% | -3.19% | -0.67% | 3.07% | 5.83% | 10.2% | -5.25% | 27.5% | -0.37% | inhibition [21]: -3.35%; inhibition [22]: 4%; inhibition [23]: -4%; inhibition [24]: 1%; inhibition [25]: 0%; inhibition [26]: -1%; inhibition [27]: 1.49% |
| C[C@H](O)c1nc(Cn2nc(-c3ccc(Cl)cc3)n(C[C@H](O)C(F)(F)F)c2=O)nn1-c1cccc(Cl)c1 [PECAVAPTAN] | > 10 µM (not active) | -5.17% | 9.78% | -5.4% | 2.6% | -1.69% | 5.13% | 4.18% | 2.11% | 0.99% | 1.32% | -3.85% | -2.67% | 1.32% | 5.55% | 8.75% | -5.29% | -4.2% | 11.6% | -2.06% | inhibition [21]: 8.06%; inhibition [22]: 8%; inhibition [23]: -10%; inhibition [24]: 6%; inhibition [25]: 7%; inhibition [26]: 20%; inhibition [27]: -3.61% |
